Reference: patent publication US11846640B2, “Identification of anticoagulants in a sample” (DSM IP Assets B.V., priority 2013, dated 2023)

What was measured:
Format in all cases: biochemical, human
normal plasma pool (NPP) [1] = experiment: PiCT Method 1 (standard Pefakit PiCT) clotting time on ACL TOP 500; conditions: for Clotting time with PiCT ® Method 1: spiked plasma; for Clotting time: Table 7C, PiCT Method 1, NPP spiked, mean n = 4
Description: As described by Korte et al. (supra) or in EP 1240528, Pefakit® PiCT® is a functional clotting assay based on the direct activation of the prothrombinase complex which results in a fine-tuned analytical output directly proportional to the final anticoagulant activity of the factor Xa or factor IIa inhibitors (see Calatzis, Haemostasis 2000, 30:172-174). To perform the Pefakit® PiCT® test (referred to herein as standard “PiCT® or PiCT® Method 1), a defined amount of PiCT® activator (=reagent 1) is added to a sample, such as, e.g., plasma. The mixture is allowed to proceed at 37° C. for a specific period of time. The Start reagent (=reagent 2) is then added to the mixture and the time required for clot formation is measured. The presence of anticoagulants in the samples dose-dependently prolongs the time to clot. Pefakit® PiCT® is adapted to laboratory instruments based on mechanical or optical detection systems, including but not limited to ACL TOP® family (Instrumentation Laboratory), preferably ACL TOP® 500, STA Compact® series (Stago) or the BCS® XP series (Siemens).
The 4 methods (see above) are in more detail described in the Examples. Specific pipetting schemes were designed using NPP spiked with incremental amounts of anticoagulants in order to achieve high reproducibility of the test system, which is required for drug identification including use in a POC system. With regards to the ACL TOP® 500 analyzer, PiCT® Method 1 to 4 has been established as follows: • PiCT® Method 1: 50 μl of plasma is incubated for 180 sec with 50 μl of reagent 1 and afterwards 50 μl of reagent 2 is added and the time to clot is recorded on the ACL TOP® 500 (i.e. pipetting scheme: P-50/A-50/I-180/50-S). This method is in particularly useful for detection of UFH, LMWH or hirudin. • PiCT® Method 2: P-75/A-65/I-180/35-S on the ACL TOP® 500 or P-80/A-65/I-180/40-S on the STA Compact® or P-75/A-65/I-180/S-40 on the BCS® XP. This method is in particularly useful for fondaparinux. • PiCT® Method 3: P-90/A-70/I-180/40-S on the ACL TOP® 500 or STA Compact®, or P-70/A-60/I-180/45-S on the BCS® XP. This method is in particularly useful for dabigatran or argatroban. • PiCT® Method 4: P-140/S-45/I160/A-40 on the ACL TOP® 500 or STA Compact®, or P-125/S-45/I-150/A-40 on the BCS® XP. This method is in particularly useful for rivaroxaban or apixaban.
With the normal PiCT®, i.e. PiCT® Method 1, wherein 50 μl of plasma is mixed with the same amount of reagent 1 (PiCT® activator), incubated for 180 sec and mixed with the same amount of reagent 2 (PiCT® start reagent) in a ACL TOP® 500 analyzer, the presence of NOACs cannot be determined in a sample. This is true even at high levels of said drugs in the sample, i.e. in the range of 300 ng/ml. Thus, in order to determine which NOAC is present in the sample, a combination of PiCT® Method 1 and PiCT® method 4 has to be used (see above for detailed description). To confirm this, spiked plasma samples with different levels of NOACs were prepared and the clotting time measured using first PiCT® Method 1 followed by PiCT® Method 4. […] In case of dabigatran present in the sample, both PiCT® Method 1 (which had to be adapted, i.e. PiCT® Method 3) and 4 are out of range as indicated in bold.

normal plasma pool (NPP) [2] = experiment: PiCT Method 4 (inverted PiCT) clotting time on ACL TOP 500; conditions: for Clotting time: Table 10B, PiCT Method 4, NPP spiked, mean n = 4; for PiCT ® method 4 clotting time: Table 11
Description: The present invention is in one aspect directed to the use of a clotting assay, in particular the PiCT® testing method on a detection system such as e.g. the ACL TOP® 500 analyzer and to a method to quantitatively and qualitatively detect anticoagulants in a sample, e.g. blood or plasma. […] PiCT® Method 4 or PiCT® inverted includes that first the start reagent is added to the sample, the mixture allowed to proceed according to the manufacturer's instructions followed by addition of the activator, i.e. a reversed order compared to standard PiCT® (see above). PiCT® Method 1 to 4 is described in more detail in the Examples.
The 4 methods (see above) are in more detail described in the Examples. Specific pipetting schemes were designed using NPP spiked with incremental amounts of anticoagulants in order to achieve high reproducibility of the test system, which is required for drug identification including use in a POC system. With regards to the ACL TOP® 500 analyzer, PiCT® Method 1 to 4 has been established as follows: • PiCT® Method 1: 50 μl of plasma is incubated for 180 sec with 50 μl of reagent 1 and afterwards 50 μl of reagent 2 is added and the time to clot is recorded on the ACL TOP® 500 (i.e. pipetting scheme: P-50/A-50/I-180/50-S).
After calculation of the RR for the different kind of anticoagulants (see Example 1) samples of NPP spiked with incremental amounts of anticoagulants were used in the ACL TOP® 500, wherein 45 μl start reagent was incubated with 140 μl plasma for 60 sec. The time to clot was recorded after addition of 40 μl of activator (i.e. so-called inverted PiCT®).

plasma samples [3] = experiment: aPTT (HemosIL aPTT SP) clotting time; conditions: Table 6, spiked plasma, mean
Description: (§1) In order to address the above question, i.e. to determine the nature of an anticoagulant in a sample, a combination of several methods has to be performed, including PiCT® Method 1, PiCT® Method 4, aPTT (HemosIL™ aPTT SP), PT (HemosIL™ PT recombiplastin), and sometimes even a modified PiCT® Method 1 wherein polybrene has been added. In order to simulate this, plasma samples spiked with different levels of anticoagulants were analyzed using the ACL TOP® 500 analyzer. For each drug, a specific pattern was obtained, i.e. clotting times within the RR and clotting times above the RR, depending on the used testing method, which is unique at least for the class of anticoagulant or even for a specific anticoagulant.

plasma samples [4] = experiment: PT (HemosIL PT recombiplastin) clotting time; conditions: Table 6, spiked plasma, mean
Description: In order to address the above question, i.e. to determine the nature of an anticoagulant in a sample, a combination of several methods has to be performed, including PiCT® Method 1, PiCT® Method 4, aPTT (HemosIL™ aPTT SP), PT (HemosIL™ PT recombiplastin), and sometimes even a modified PiCT® Method 1 wherein polybrene has been added. In order to simulate this, plasma samples spiked with different levels of anticoagulants were analyzed using the ACL TOP® 500 analyzer.

plasma samples [5] = experiment: PiCT Method 1 with polybrene added, clotting time; conditions: Table 6, spiked plasma, mean
Description: By the addition of polybrene a distinction can be done, which of the anticoagulants is really present in the sample: if after addition of polybrene the measured clotting times are again back to RR when using the PiCT® Method 1, the sample comprises heparins, such as e.g. UFH or LMWH. Alternatively, if the result is not going back to RR, the sample comprises low concentrations of dabigatran or hirudin. […] The particular clotting times measured for the different anticoagulants are shown in Table 6, which is an example of results obtained in spiked plasma samples.
as §1

COc1ccc(-n2nc(C(N)=O)c3c2C(=O)N(c2ccc(N4CCCCC4=O)cc2)CC3)cc1 [apixaban]
Clotting time with PiCT ® Method 1 (normal plasma pool (NPP) [1]; Table 5, 20 ng per ml (title: Method 3 for dabigatran)): 18 s | Clotting time with PiCT ® Method 1 (normal plasma pool (NPP) [1]; Table 5, 35 ng per ml (title: Method 3 for dabigatran)): 18 s | Clotting time with PiCT ® Method 1 (normal plasma pool (NPP) [1]; Table 5, 300 ng per ml (title: Method 3 for dabigatran)): 24.9 s | Clotting time with PiCT ® Method 1 (normal plasma pool (NPP) [1]; Table 6, 50 ng, mean): 18.9 s | Clotting time with PiCT ® Method 1 (normal plasma pool (NPP) [1]; Table 6, 200 ng, mean): 22.3 s | Clotting time with PiCT ® Method 4 (normal plasma pool (NPP) [2]; Table 4, NPP spiked with 20 ng per ml): 45 s | Clotting time with PiCT ® Method 4 (normal plasma pool (NPP) [2]; Table 4, NPP spiked with 35 ng per ml): 54 s | Clotting time with PiCT ® Method 4 (normal plasma pool (NPP) [2]; Table 5, spiked plasma, 20 ng per ml): 45 s | Clotting time with PiCT ® Method 4 (normal plasma pool (NPP) [2]; Table 5, spiked plasma, 35 ng per ml): 54 s | Clotting time with PiCT ® Method 4 (normal plasma pool (NPP) [2]; Table 5, spiked plasma, 300 ng per ml): 124.3 s | Clotting time with PiCT ® Method 4 (normal plasma pool (NPP) [2]; Table 6, spiked plasma, 50 ng, mean): 54.4 s | Clotting time with PiCT ® Method 4 (normal plasma pool (NPP) [2]; Table 6, spiked plasma, 200 ng, mean): 151.0 s | Clotting time (normal plasma pool (NPP) [2]; 5 ng/ml): 65 s | Clotting time (normal plasma pool (NPP) [2]; 10 ng/ml): 74 s | Clotting time (normal plasma pool (NPP) [2]; 50 ng/ml): 109 s | Clotting time (normal plasma pool (NPP) [2]; 100 ng/ml): 136 s | Clotting time (normal plasma pool (NPP) [2]; 200 ng/ml): 167 s | Clotting time (normal plasma pool (NPP) [2]; 500 ng/ml): 233 s | PiCT ® method 4 clotting time (normal plasma pool (NPP) [2]; spiked plasma, 20 ng/mL (wash off level)): 45 sec (n = 3) | PiCT ® method 4 clotting time (normal plasma pool (NPP) [2]; spiked plasma, 35 ng/mL (wash off level)): 54 sec (n = 3) | Clotting time with aPTT (plasma samples [3]; 50 ng): 31.0 s | Clotting time with aPTT (plasma samples [3]; 200 ng): 36.4 s | Clotting time with PT (plasma samples [4]; 50 ng): 11.2 s

lepirudin [hirudin]
Clotting time with PiCT ® Method 1 (normal plasma pool (NPP) [1]; Table 6, 0.4 μg, mean): 88.9 s | Clotting time with PiCT ® Method 1 (normal plasma pool (NPP) [1]; Table 6, 2.5 μg, mean): 264.5 s | Clotting time (normal plasma pool (NPP) [1]; 0.2 μg/ml): 41 s | Clotting time (normal plasma pool (NPP) [1]; 0.4 μg/ml): 55 s | Clotting time (normal plasma pool (NPP) [1]; 0.6 μg/ml): 69 s | Clotting time (normal plasma pool (NPP) [1]; 0.9 μg/ml): 86 s | Clotting time (normal plasma pool (NPP) [1]; 1.3 μg/ml): 113 s | Clotting time (normal plasma pool (NPP) [1]; 1.7 μg/ml): 142 s | Clotting time (normal plasma pool (NPP) [1]; 2.0 μg/ml): 158 s | Clotting time (normal plasma pool (NPP) [1]; 2.4 μg/ml): 183 s | Clotting time (normal plasma pool (NPP) [1]; 2.8 μg/ml): 209 s | Clotting time (normal plasma pool (NPP) [1]; 3.0 μg/ml): 219 s | Clotting time with PiCT ® Method 4 (normal plasma pool (NPP) [2]; Table 4, NPP spiked with 0.4 μg per ml): 300 s | Clotting time with PiCT ® Method 4 (normal plasma pool (NPP) [2]; Table 6, spiked plasma, 0.4 μg, mean): 300.0 s | Clotting time with PiCT ® Method 4 (normal plasma pool (NPP) [2]; Table 6, spiked plasma, 2.5 μg, mean): 300.0 s | Clotting time with aPTT (plasma samples [3]; 0.4 μg): 60.6 s | Clotting time with aPTT (plasma samples [3]; 2.5 μg): 108.8 s | Clotting time with PT (plasma samples [4]; 0.4 μg): 11.8 s | Clotting time with PT (plasma samples [4]; 2.5 μg): 14.6 s | Clotting time with PiCT ® Method 1 + polybrene (plasma samples [5]; 0.4 μg): 89.5 s | Clotting time with PiCT ® Method 1 + polybrene (plasma samples [5]; 2.5 μg): 258.0 s
